From patent US9822147B2, “Methods of treating ophthalmic diseases using NPR-B agonists” (priority 2009, dated 2017)
Numbered stars: 1 amine (or outer) side, 2 acyl side, 3 side chain; on linkers, the order of the positions; unused ones are H or OH. Square brackets hold non-standard residues; d marks the D form. Peptide text beside a SMILES is read from it. * marks the point of attachment. X4 = NCCCN[C@@H]1C[C@@H](C(=O)[*:2])N([*:1])C1; Pro(4R-NH2) = N[C@H]1CN[C@H](C(=O)O)C1; dLys(Me2) = CN(C)CCCC[C@@H](N)C(=O)O; dOrn(Me2) = CN(C)CCC[C@@H](N)C(=O)O; X2 = O=C([C@H]1CCCN([*:1])C1)[*:2]; X1 = CCCCCCCCN1CCC[C@H](C(=O)*)C1; dDap(Me2) = CN(C)C[C@@H](N)C(=O)O; Hyp = O=C(O)[C@@H]1C[C@@H](O)CN1; 3Thi = N[C@@H](Cc1ccsc1)C(=O)O; NHcycloheptyl = C1CCCC(N*)CC1; NMeL = CN[C@@H](CC(C)C)C(=O)O; Octanoyl = CCCCCCCC(=O)*; Api = NC1(C(=O)O)CCNCC1

Target: T1, NPR-B (Homo sapiens, UniProt P20594)
T1 construct: a functional assay using endogenously NPR-B expressing GTM-3 cells; endogenous in cells; host or cells: GTM-3 (human glaucoma trabecular meshwork cells)
T1 sequence (P20594 23-1047): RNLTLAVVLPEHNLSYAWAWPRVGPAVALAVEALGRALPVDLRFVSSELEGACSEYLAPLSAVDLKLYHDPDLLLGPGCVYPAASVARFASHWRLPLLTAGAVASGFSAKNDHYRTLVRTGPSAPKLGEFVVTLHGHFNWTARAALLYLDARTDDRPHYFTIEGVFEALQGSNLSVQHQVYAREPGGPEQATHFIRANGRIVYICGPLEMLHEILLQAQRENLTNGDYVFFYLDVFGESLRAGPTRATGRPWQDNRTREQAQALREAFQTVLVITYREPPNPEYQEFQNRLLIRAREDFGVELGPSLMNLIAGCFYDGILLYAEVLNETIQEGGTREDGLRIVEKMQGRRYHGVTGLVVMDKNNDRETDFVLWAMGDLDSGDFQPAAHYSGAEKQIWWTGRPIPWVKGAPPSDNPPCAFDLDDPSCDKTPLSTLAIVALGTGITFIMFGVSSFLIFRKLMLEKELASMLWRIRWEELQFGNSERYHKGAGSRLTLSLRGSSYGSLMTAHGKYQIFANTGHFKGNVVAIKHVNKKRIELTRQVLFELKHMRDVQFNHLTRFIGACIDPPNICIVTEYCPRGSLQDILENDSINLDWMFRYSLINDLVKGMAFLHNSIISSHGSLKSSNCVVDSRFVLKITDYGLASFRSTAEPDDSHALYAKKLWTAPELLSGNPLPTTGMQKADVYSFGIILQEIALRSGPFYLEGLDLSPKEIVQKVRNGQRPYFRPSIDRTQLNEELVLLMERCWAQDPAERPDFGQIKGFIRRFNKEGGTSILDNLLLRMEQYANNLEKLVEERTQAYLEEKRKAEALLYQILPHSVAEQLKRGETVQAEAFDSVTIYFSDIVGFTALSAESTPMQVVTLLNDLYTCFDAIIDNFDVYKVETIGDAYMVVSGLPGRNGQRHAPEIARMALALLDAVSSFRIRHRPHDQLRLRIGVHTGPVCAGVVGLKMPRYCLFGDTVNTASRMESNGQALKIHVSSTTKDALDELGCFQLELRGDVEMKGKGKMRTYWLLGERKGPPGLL
Experiment: NPR-B induced production of cyclic GMP in human glaucoma trabecular meshwork cells (GTM-3)
Format: cell-based
Conditions: group by EC50 and Emax (CNP = 100%); Table 4; read-out: Activity (group), NPR-B activation assayed with GTM-3 cells

Row | SMILES | EC50 [nM]
1 | CCCCCCCCN1CCC[C@H](C(=O)N[C@@H](Cc2ccccc2)C(=O)N[C@H](CC(C)C)C(=O)N[C@@H](CC(C)C)C(=O)N2C[C@H](O)C[C@H]2C(=O)N(C)[C@@H](CC(C)C)C(=O)N[C@@H](CC(=O)O)C(=O)N[C@@H](CCCNC(=N)N)C(=O)N[C@H](C(N)=O)[C@@H](C)CC)C1 [JAL-1302, Oct-Sni-Phe-leu-Leu-Hyp-Nml-Asp-Arg-Ile-NH2] (HELM PEPTIDE1{[CCCCCCCCN1CCC[C@H](C(=O)[*:2])C1].F.[dL].L.[Hyp].[meL].D.R.I.[am]}$$$$V2.0) | < 1000
2 | CCCCc1cnc(Nc2ccc(C(=O)N[C@@H](Cc3ccccc3)C(=O)N[C@H](CC(C)C)C(=O)N[C@@H](CC(C)C)C(=O)N3C[C@H](O)C[C@H]3C(=O)N(C)[C@@H](CC(C)C)C(=O)N[C@@H](CC(=O)O)C(=O)N[C@@H](CCCNC(=N)N)C(=O)N[C@H](C(N)=O)[C@@H](C)CC)cc2)s1 [JAL-1380, (AR-201-68)-Phe-leu-Leu-Hyp-Nml-Asp-Arg-Ile-NH2] (HELM PEPTIDE1{[CCCCc1cnc(Nc2ccc(C(=O)[*:2])cc2)s1].F.[dL].L.[Hyp].[meL].D.R.I.[am]}$$$$V2.0) | < 1000
3 | CCCCCCCC(=O)N1CCC[C@H](C(=O)N[C@@H](Cc2ccccc2)C(=O)N[C@H](CCCCN(C)C)C(=O)N[C@@H](CC(C)C)C(=O)N2C[C@H](O)C[C@H]2C(=O)N(C)[C@@H](CC(C)C)C(=O)N[C@H](C(=O)N[C@@H](CCCNC(=N)N)C(=O)NC2CCCCCC2)C(C)C)C1 [JAL-1779, Occ-Sni-Phe-lys(Me2)-Leu-Hyp-Nml-Val-Arg-Che] (Octanoyl-[X2]F[dLys(Me2)]L[Hyp][NMeL]VR-NHcycloheptyl) | < 1000
4 | CCCCCCCC(=O)N1CCC[C@H](C(=O)N[C@@H](Cc2ccccc2)C(=O)N[C@H](CCCN(C)C)C(=O)N[C@@H](CC(C)C)C(=O)N2C[C@H](O)C[C@H]2C(=O)N(C)[C@@H](CC(C)C)C(=O)N[C@H](C(=O)N[C@@H](CCCNC(=N)N)C(=O)N[C@H](C(N)=O)[C@@H](C)CC)C(C)C)C1 [JAL-1782, Occ-Sni-Phe-orn(Me2)-Leu-Hyp-Nml-Val-Arg-Ile-NH2] (Octanoyl-[X2]F[dOrn(Me2)]L[Hyp][NMeL]VRI-NH2) | < 1000
5 | CCCCCCCC(=O)N1CCC[C@H](C(=O)N[C@@H](Cc2ccccc2)C(=O)N[C@H](CC(C)C)C(=O)N[C@@H](CC(C)C)C(=O)N2C[C@H](O)C[C@H]2C(=O)N(C)[C@@H](CC(C)C)C(=O)N[C@@H](CO)C(=O)N[C@@H](CCCNC(=N)N)C(=O)NC2CCCCCC2)C1 [JAL-1752, Occ-Sni-Phe-leu-Leu-Hyp-Nml-Ser-Arg-Che] (Octanoyl-[X2]F[dL]L[Hyp][NMeL]SR-NHcycloheptyl) | < 1000
6 | CCCCCCCC(=O)N1CCC[C@H](C(=O)N[C@@H](Cc2ccsc2)C(=O)N[C@H](CC(C)C)C(=O)N[C@@H](CC(C)C)C(=O)N2C[C@H](O)C[C@H]2C(=O)N(C)[C@@H](CC(C)C)C(=O)N[C@@H](CC(=O)O)C(=O)N[C@@H](CCCNC(=N)N)C(=O)N[C@H](C(N)=O)[C@@H](C)CC)C1 [JAL-1620, Occ-Sni-Thk-leu-Leu-Hyp-Nml-Asp-Arg-Ile-NH2] (Octanoyl-[X2][3Thi][dL]L[Hyp][NMeL]DRI-NH2) | < 1000
7 | CCCCCCCC(=O)N1CCC[C@H](C(=O)N[C@@H](Cc2ccccc2)C(=O)NC2(C(=O)N[C@@H](CC(C)C)C(=O)N3C[C@H](N)C[C@H]3C(=O)N(C)[C@@H](CC(C)C)C(=O)N[C@@H](CC(=O)O)C(=O)N3CCC[C@H]3C(=O)NC3CCCCCC3)CCNCC2)C1 [JAL-1602, Occ-Sni-Phe-Apc-Leu-Tap-Nml-Asp-Pro-Che] (Octanoyl-[X2]F[Api]L[Pro(4R-NH2)][NMeL]DP-NHcycloheptyl) | < 1000
8 | CCCCCCCC(=O)N[C@H](C)C(=O)N[C@@H](Cc1ccccc1)C(=O)NC(C(=O)N[C@@H](CC(C)C)C(=O)N1C[C@H](O)C[C@H]1C(=O)N(C)[C@@H](CC(C)C)C(=O)N[C@@H](CC(=O)O)C(=O)N[C@@H](CCCNC(=N)N)C(=O)N[C@H](C(N)=O)[C@@H](C)CC)C1CCCNC1 (stereo partly drawn) [JAL-1336, Occ-ala-Phe-Fhy-Leu-Hyp-Nml-Asp-Arg-Ile-NH2] (HELM PEPTIDE1{[CCCCCCCC(=O)[*:2]].[dA].F.[O=C(C(N[*:1])C1CCCNC1)[*:2]].L.[Hyp].[meL].D.R.I.[am]}$$$$V2.0) | < 1000
9 | CCCCCCCC(=O)N1CCC[C@H](C(=O)N[C@@H](Cc2ccccc2)C(=O)N[C@H](CC(C)C)C(=O)N[C@@H](CC(C)C)C(=O)N2C[C@H](NCCCN)C[C@H]2C(=O)N(C)[C@@H](CC(C)C)C(=O)N[C@@H](CC(=O)O)C(=O)N[C@@H](CCCNC(=N)N)C(=O)N[C@H](C(N)=O)[C@@H](C)CC)C1 [JAL-1372, Occ-Sni-Phe-leu-Leu-Tap(Ap)-Nml-Asp-Arg-Ile-NH2] (Octanoyl-[X2]F[dL]L[X4][NMeL]DRI-NH2) | < 1000
10 | CCCCCCCC(=O)N1CCC[C@H](C(=O)N[C@@H](Cc2ccccc2)C(=O)N[C@H](CN(C)C)C(=O)N[C@@H](CC(C)C)C(=O)N2C[C@H](N)C[C@H]2C(=O)N(C)[C@@H](CC(C)C)C(=O)N[C@H](C(=O)N[C@@H](CCCNC(=N)N)C(=O)N[C@H](C(N)=O)[C@@H](C)CC)C(C)C)C1 [JAL-1403, Occ-Sni-Phe-dap(Me2)-Leu-Tap-Nml-Val-Arg-Ile-NH2] (Octanoyl-[X2]F[dDap(Me2)]L[Pro(4R-NH2)][NMeL]VRI-NH2) | < 1000
11 | CCCCCCCCN1CCC[C@H](C(=O)N[C@@H](Cc2ccccc2)C(=O)N[C@H](CC(C)C)C(=O)N[C@@H](CC(C)C)C(=O)N2C[C@H](N)C[C@H]2C(=O)N(C)[C@@H](CC(C)C)C(=O)N[C@@H](CC(=O)O)C(=O)N[C@@H](CCCNC(=N)N)C(=O)NC2CCCCCC2)C1 [JAL-1843, Oct-Sni-Phe-leu-Leu-Tap-Nml-Asp-Arg-Che] (X1-F[dL]L[Pro(4R-NH2)][NMeL]DR-NHcycloheptyl) | < 1000
12 | CCCCCCCCN1CCC[C@H](C(=O)N[C@@H](Cc2ccccc2)C(=O)N[C@H](CN(C)C)C(=O)N[C@@H](CC(C)C)C(=O)N2C[C@H](N)C[C@H]2C(=O)N(C)[C@@H](CC(C)C)C(=O)N[C@H](C(=O)N[C@@H](CCCNC(=N)N)C(=O)N[C@H](C(N)=O)[C@@H](C)CC)C(C)C)C1 [JAL-1405, Oct-Sni-Phe-dap(Me2)-Leu-Tap-Nml-Val-Arg-Ile-NH2] (X1-F[dDap(Me2)]L[Pro(4R-NH2)][NMeL]VRI-NH2) | < 1000
13 | CCCCCCCC(=O)N1CCCC2(CCN(C(Cc3ccccc3)C(=O)N[C@H](CC(C)C)C(=O)N[C@@H](CC(C)C)C(=O)N3C[C@H](O)C[C@H]3C(=O)N(C)[C@@H](CC(C)C)C(=O)N[C@@H](CC(=O)O)C(=O)N[C@@H](CCCNC(=N)N)C(=O)N[C@H](C(N)=O)[C@@H](C)CC)C2=O)C1 (stereo partly drawn) [JAL-1765-2, (AR-314-87)-leu-Leu-Hyp-Nml-Asp-Arg-Ile-NH2] (HELM PEPTIDE1{[CCCCCCCC(=O)[*:2]].[O=C1N(C(Cc2ccccc2)C(=O)[*:2])CCC12CCCN([*:1])C2].[dL].L.[Hyp].[meL].D.R.I.[am]}$$$$V2.0) | < 1000
14 | CCCCCCCC(=O)N[C@H](C)C(=O)N(C)[C@@H](Cc1ccccc1)C(=O)N[C@H](CC(C)C)C(=O)N[C@@H](CC(C)C)C(=O)N1C[C@H](O)C[C@H]1C(=O)N(C)[C@@H](CC(C)C)C(=O)N[C@@H](CC(=O)O)C(=O)N[C@@H](CCCNC(=N)N)C(=O)N[C@H](C(N)=O)[C@@H](C)CC [JAL-1267, Occ-ala-Nmf-leu-Leu-Hyp-Nml-Asp-Arg-Ile-NH2] (HELM PEPTIDE1{[CCCCCCCC(=O)[*:2]].[dA].[meF].[dL].L.[Hyp].[meL].D.R.I.[am]}$$$$V2.0) | < 1000
